Data published in US20230111310A1, “CARBOXYLIC ACID DERIVATIVE-SUBSTITUTED IMINO ARYL COMPOUND, PREPARATION METHOD THEREFOR, HERBICIDAL COMPOSITION AND USE THEREOF” (Qingdao Kingagroot Chemical Compound Co., Ltd., priority 2020, published 2023).

What was measured:
Assay in all cases: Weeding effect in post-emergence stage
Type in all cases: in vivo
Settings in all cases: Dose 15 g/ha; level of fresh weight growth control rate
Abutilon theophrasti = system: Abutilon theophrasti
Outline: (§1)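 Pot-grown greenhouse plants sprayed at 2–3 leaf stage, 2 weeks after sowing, with compound in acetone/Tween 80 plus methyl oleate emulsifiable concentrate (1.5 liter/ha) at 500–7.5 g/ha. Growth control rated 3 weeks after treatment; mean of three replicates.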

Alopecurus japonicus = system: Alopecurus japonicus
Outline: as §1

Digitaria sanguinalis = system: Digitaria sanguinalis
Outline: as §1

Eleusine indica = system: Eleusine indica
Outline: as §1

Setaria viridis = system: Setaria viridis
Outline: as §1

Echinochloa crusgalli = system: Echinochloa crusgalli
Outline: as §1

SMILES	Weeding effect in post-emergence stage, Abutilon theophrasti (Abutilon theophrasti)	Weeding effect in post-emergence stage, Alopecurus japonicus (Alopecurus japonicus)	Weeding effect in post-emergence stage, Digitaria sanguinalis (Digitaria sanguinalis)	Weeding effect in post-emergence stage, Eleusine indica (Eleusine indica)	Weeding effect in post-emergence stage, Setaria viridis (Setaria viridis)	Weeding effect in post-emergence stage, Echinochloa crusgalli (Echinochloa crusgalli)
C[C@@H](O/N=C/c1cc(-n2c(=O)n(C)c(=S)n(C)c2=O)c(F)cc1Cl)C(=O)OCc1cccnc1 [59(R)]	5 (Level 5: growth control rate is above 85%)	4 (Level 4: growth control rate is greater than or equal to 60% and less than 85%)	5 (Level 5: growth control rate is above 85%)	5 (Level 5: growth control rate is above 85%)	5 (Level 5: growth control rate is above 85%)	5 (Level 5: growth control rate is above 85%)
C[C@@H](O/N=C/c1cc(-n2c(=O)n(C)c(=S)n(C)c2=O)c(F)cc1Cl)C(=O)OCc1ccncc1 [60(R)]	5 (Level 5: growth control rate is above 85%)	4 (Level 4: growth control rate is greater than or equal to 60% and less than 85%)	5 (Level 5: growth control rate is above 85%)	5 (Level 5: growth control rate is above 85%)	5 (Level 5: growth control rate is above 85%)	5 (Level 5: growth control rate is above 85%)
CC[C@@H](O/N=C/c1cc(-n2c(=O)n(C)c(=S)n(C)c2=O)c(F)cc1Cl)C(=O)OC [72(R)]	5 (Level 5: growth control rate is above 85%)	5 (Level 5: growth control rate is above 85%)	5 (Level 5: growth control rate is above 85%)	5 (Level 5: growth control rate is above 85%)	5 (Level 5: growth control rate is above 85%)	5 (Level 5: growth control rate is above 85%)
CCOC(=O)[C@H](O/N=C/c1cc(-n2c(=O)n(C)c(=S)n(C)c2=O)c(F)cc1Cl)C1CC1 [76(R)]	5 (Level 5: growth control rate is above 85%)	5 (Level 5: growth control rate is above 85%)	5 (Level 5: growth control rate is above 85%)	5 (Level 5: growth control rate is above 85%)	5 (Level 5: growth control rate is above 85%)	5 (Level 5: growth control rate is above 85%)
COC[C@@H](O/N=C/c1cc(-n2c(=O)n(C)c(=S)n(C)c2=O)c(F)cc1Cl)C(=O)OC [80(R)]	5 (Level 5: growth control rate is above 85%)	5 (Level 5: growth control rate is above 85%)	5 (Level 5: growth control rate is above 85%)	5 (Level 5: growth control rate is above 85%)	5 (Level 5: growth control rate is above 85%)	5 (Level 5: growth control rate is above 85%)
COC(=O)[C@@H](C)O/N=C/c1cc(-n2c(=O)n(C)c(=S)n(C)c2=O)c(F)cc1Br [83(R)]	5 (Level 5: growth control rate is above 85%)	4 (Level 4: growth control rate is greater than or equal to 60% and less than 85%)	4 (Level 4: growth control rate is greater than or equal to 60% and less than 85%)	5 (Level 5: growth control rate is above 85%)	5 (Level 5: growth control rate is above 85%)	5 (Level 5: growth control rate is above 85%)
CCOC(=O)[C@@H](C)O/N=C/c1cc(-n2c(=O)n(C)c(=S)n(C)c2=O)c(F)cc1Br [84(R)]	5 (Level 5: growth control rate is above 85%)	4 (Level 4: growth control rate is greater than or equal to 60% and less than 85%)	4 (Level 4: growth control rate is greater than or equal to 60% and less than 85%)	5 (Level 5: growth control rate is above 85%)	5 (Level 5: growth control rate is above 85%)	5 (Level 5: growth control rate is above 85%)
COC(=O)[C@@H](C)O/N=C/c1cc(-n2c(=O)n(C)c(=S)n(C)c2=O)c(F)cc1C(F)(F)F [85(R)]	5 (Level 5: growth control rate is above 85%)	4 (Level 4: growth control rate is greater than or equal to 60% and less than 85%)	5 (Level 5: growth control rate is above 85%)	5 (Level 5: growth control rate is above 85%)	5 (Level 5: growth control rate is above 85%)	5 (Level 5: growth control rate is above 85%)
CCOC(=O)[C@@H](C)O/N=C/c1cc(-n2c(=O)n(C)c(=S)n(C)c2=O)c(F)cc1C(F)(F)F [86(R)]	5 (Level 5: growth control rate is above 85%)	3 (Level 3: growth control rate is greater than or equal to 40% and less than 60%)	3 (Level 3: growth control rate is greater than or equal to 40% and less than 60%)	5 (Level 5: growth control rate is above 85%)	4 (Level 4: growth control rate is greater than or equal to 60% and less than 85%)	4 (Level 4: growth control rate is greater than or equal to 60% and less than 85%)
COC(=O)[C@@H](C)O/N=C/c1cc(-n2c(=O)n(C)c(=S)n(C)c2=O)c(F)cc1C#N [87(R)]	5 (Level 5: growth control rate is above 85%)	5 (Level 5: growth control rate is above 85%)	5 (Level 5: growth control rate is above 85%)	5 (Level 5: growth control rate is above 85%)	5 (Level 5: growth control rate is above 85%)	5 (Level 5: growth control rate is above 85%)
CCOC(=O)[C@@H](C)O/N=C/c1cc(-n2c(=O)n(C)c(=S)n(C)c2=O)c(F)cc1C#N [88(R)]	5 (Level 5: growth control rate is above 85%)	5 (Level 5: growth control rate is above 85%)	5 (Level 5: growth control rate is above 85%)	5 (Level 5: growth control rate is above 85%)	5 (Level 5: growth control rate is above 85%)	5 (Level 5: growth control rate is above 85%)
COC(=O)[C@@H](C)O/N=C/c1cc(-n2c(=O)n(C)c(=S)n(C)c2=S)c(F)cc1Cl [124(R)]	5 (Level 5: growth control rate is above 85%)	5 (Level 5: growth control rate is above 85%)	5 (Level 5: growth control rate is above 85%)	5 (Level 5: growth control rate is above 85%)	5 (Level 5: growth control rate is above 85%)	5 (Level 5: growth control rate is above 85%)
CCOC(=O)[C@@H](C)O/N=C/c1cc(-n2c(=O)n(C)c(=S)n(C)c2=S)c(F)cc1Br [161(R)]	5 (Level 5: growth control rate is above 85%)	4 (Level 4: growth control rate is greater than or equal to 60% and less than 85%)	4 (Level 4: growth control rate is greater than or equal to 60% and less than 85%)	5 (Level 5: growth control rate is above 85%)	5 (Level 5: growth control rate is above 85%)	5 (Level 5: growth control rate is above 85%)
COC(=O)[C@@H](C)O/N=C/c1cc(-n2c(=O)n(C)c(=O)n(C)c2=O)c(F)cc1Cl [164(R)]	5 (Level 5: growth control rate is above 85%)	5 (Level 5: growth control rate is above 85%)	5 (Level 5: growth control rate is above 85%)	5 (Level 5: growth control rate is above 85%)	5 (Level 5: growth control rate is above 85%)	5 (Level 5: growth control rate is above 85%)
CCSC(=O)[C@@H](C)O/N=C/c1cc(-n2c(=O)n(C)c(=S)n(C)c2=O)c(F)cc1Cl [168(R)]	5 (Level 5: growth control rate is above 85%)	5 (Level 5: growth control rate is above 85%)	5 (Level 5: growth control rate is above 85%)	5 (Level 5: growth control rate is above 85%)	5 (Level 5: growth control rate is above 85%)	5 (Level 5: growth control rate is above 85%)
